Source: ChEMBL document CHEMBL3885861, “Open TG-GATES”

Species on record: Rattus norvegicus
Test: Open TG-GATES - Regimen: Daily Repeat
Format: toxicity, organism-based, Sprague-Dawley
Design: regimen Daily Repeat, gender Male, age 6 weeks
Details: in vivo, po, 100 mg/kg, […], route gavage, dose level Low; for KIDNEY_L / KIDNEY_R / KIDNEY_TOTAL: tissue Kidney; for LIVER: tissue Liver; for A/G / ALP / ALT / AST / BUN / CRE / Ca / Cl / DBIL / GLC / IP / K / LDH / Na / PL / RALB / TBIL / TC / TG / TP / gamma-GTP: tissue Plasma

O=C(O)c1cc(/N=N/c2ccc(S(=O)(=O)Nc3ccccn3)cc2)ccc1O [SULFASALAZINE]
Lym (tissue Blood, time 28 day): 81.2% | MCH (tissue Blood, time 28 day): 19.8 pg | MCHC (tissue Blood, time 28 day): 35.6% | MCV (tissue Blood, time 28 day): 55.6 fL | Mono (tissue Blood, time 28 day): 2.4% | Neu (tissue Blood, time 28 day): 14.6% | PT (tissue Blood, time 28 day): 12.6 s | Plat (tissue Blood, time 28 day): 105.8 x10_4/uL | RBC (tissue Blood, time 28 day): 764.8 x10_4/ul | Ret (tissue Blood, time 28 day): 3.2% | WBC (tissue Blood, time 28 day): 113.7 x10_2/uL | KIDNEY_L (time 7 day): 1.1 g | KIDNEY_R (time 7 day): 1.1 g | KIDNEY_TOTAL (time 7 day): 2.2 g | KIDNEY_L (time 14 day): 1.2 g | KIDNEY_R (time 14 day): 1.2 g | KIDNEY_TOTAL (time 14 day): 2.3 g | KIDNEY_L (time 28 day): 1.4 g | KIDNEY_R (time 28 day): 1.4 g | KIDNEY_TOTAL (time 28 day): 2.7 g | LIVER (time 7 day): 11.9 g | LIVER (time 14 day): 13 g | LIVER (time 28 day): 15 g | A/G (time 7 day): 1.6 | ALP (time 7 day): 780.6 IU/L | ALT (time 7 day): 31.8 IU/L | AST (time 7 day): 63.8 IU/L | BUN (time 7 day): 16.4 mg/dL | CRE (time 7 day): 0.4 mg/dL | Ca (time 7 day): 10.6 mg/dL | Cl (time 7 day): 103.4 meq/L | DBIL (time 7 day): 0.074 mg/dL | GLC (time 7 day): 232 mg/dL | IP (time 7 day): 7.2 mg/dL | K (time 7 day): 3.7 meq/L | LDH (time 7 day): 217.4 IU/L | Na (time 7 day): 140.6 meq/L | PL (time 7 day): 149.6 mg/dL | RALB (time 7 day): 3.5 g/dL | TBIL (time 7 day): 0.1 mg/dL | TC (time 7 day): 72.8 mg/dL | TG (time 7 day): 71 mg/dL | TP (time 7 day): 5.7 g/dL | gamma-GTP (time 7 day): 1.4 IU/L | A/G (time 14 day): 1.5 | ALP (time 14 day): 842.8 IU/L | ALT (time 14 day): 34 IU/L | AST (time 14 day): 65.6 IU/L | BUN (time 14 day): 16.8 mg/dL | CRE (time 14 day): 0.5 mg/dL | Ca (time 14 day): 10.5 mg/dL | Cl (time 14 day): 103.4 meq/L | DBIL (time 14 day): 0.1 mg/dL | GLC (time 14 day): 203.8 mg/dL | IP (time 14 day): 6.5 mg/dL | K (time 14 day): 3.6 meq/L | LDH (time 14 day): 196 IU/L | Na (time 14 day): 141.4 meq/L | PL (time 14 day): 153.6 mg/dL | RALB (time 14 day): 3.5 g/dL | TBIL (time 14 day): 0.2 mg/dL | TC (time 14 day): 70.6 mg/dL | TG (time 14 day): 133.4 mg/dL | TP (time 14 day): 5.8 g/dL | gamma-GTP (time 14 day): 1.2 IU/L | A/G (time 28 day): 1.3 | ALP (time 28 day): 678.2 IU/L | ALT (time 28 day): 38.8 IU/L | AST (time 28 day): 65.8 IU/L | BUN (time 28 day): 18 mg/dL | CRE (time 28 day): 0.5 mg/dL | Ca (time 28 day): 10.5 mg/dL | Cl (time 28 day): 102.8 meq/L | DBIL (time 28 day): 0.1 mg/dL | GLC (time 28 day): 215 mg/dL | IP (time 28 day): 6 mg/dL | K (time 28 day): 3.6 meq/L | LDH (time 28 day): 185.6 IU/L | Na (time 28 day): 141.4 meq/L | PL (time 28 day): 154 mg/dL | RALB (time 28 day): 3.6 g/dL | TBIL (time 28 day): 0.2 mg/dL | TC (time 28 day): 71.6 mg/dL | TG (time 28 day): 129.8 mg/dL | TP (time 28 day): 6.3 g/dL | gamma-GTP (time 28 day): 0.6 IU/L
